# Assay results taken from the NIST ThermoML archive (doi:10.1021/acs.jced.8b00662).
# Numbers after ± are expanded uncertainties.
# What was measured:
# [1] = 100 kPa, Liquid; for viscosity: Falling or rolling sphere viscometry; for mass density: Vibrating tube method
# [2] = xn = mol fraction of the nth substance listed; settings: 100 kPa, Liquid; for viscosity: Falling or rolling sphere viscometry; for mass density: Vibrating tube method
smiles,measurement,setting,value
"c1ccc2c(c1)CCCC2 [1,2,3,4-tetrahydronaphthalene]",viscosity,[1]; 293.15 K,2.233 ± 0.047 mPa·s
same,mass density,[1]; 293.15 K,968.89 ± 1.2 kg/m3
same,viscosity,[1]; 298.15 K,2.019 ± 0.043 mPa·s
same,mass density,[1]; 298.15 K,964.92 ± 1.2 kg/m3
same,viscosity,[1]; 303.15 K,1.838 ± 0.039 mPa·s
same,mass density,[1]; 303.15 K,960.96 ± 1.1 kg/m3
same,viscosity,[1]; 308.15 K,1.681 ± 0.036 mPa·s
same,mass density,[1]; 308.15 K,956.99 ± 1.1 kg/m3
same,viscosity,[1]; 313.15 K,1.546 ± 0.033 mPa·s
same,mass density,[1]; 313.15 K,953.03 ± 1.1 kg/m3
same,viscosity,[1]; 318.15 K,1.428 ± 0.03 mPa·s
same,mass density,[1]; 318.15 K,949.05 ± 1.1 kg/m3
same,viscosity,[1]; 323.15 K,1.324 ± 0.028 mPa·s
same,mass density,[1]; 323.15 K,945.1 ± 1.1 kg/m3
same,viscosity,[1]; 328.15 K,1.233 ± 0.026 mPa·s
same,mass density,[1]; 328.15 K,941.13 ± 1.1 kg/m3
same,viscosity,[1]; 333.15 K,1.151 ± 0.024 mPa·s
same,mass density,[1]; 333.15 K,937.17 ± 1.1 kg/m3
same,viscosity,[1]; 338.15 K,1.079 ± 0.023 mPa·s
same,mass density,[1]; 338.15 K,933.19 ± 1.1 kg/m3
same,viscosity,[1]; 343.15 K,1.013 ± 0.022 mPa·s
same,mass density,[1]; 343.15 K,929.2 ± 1.1 kg/m3
"c1ccc2c(c1)CCCC2 [1,2,3,4-tetrahydronaphthalene] + CC(C)C1CCCCC1",viscosity,"[2]; 293.15 K, x1 = 1",2.233 ± 0.047 mPa·s
same,mass density,"[2]; 293.15 K, x1 = 1",968.89 ± 1.2 kg/m3
same,viscosity,"[2]; 298.15 K, x1 = 1",2.019 ± 0.043 mPa·s
same,mass density,"[2]; 298.15 K, x1 = 1",964.92 ± 1.2 kg/m3
same,viscosity,"[2]; 303.15 K, x1 = 1",1.838 ± 0.039 mPa·s
same,mass density,"[2]; 303.15 K, x1 = 1",960.96 ± 1.1 kg/m3
same,viscosity,"[2]; 308.15 K, x1 = 1",1.681 ± 0.036 mPa·s
same,mass density,"[2]; 308.15 K, x1 = 1",956.99 ± 1.1 kg/m3
same,viscosity,"[2]; 313.15 K, x1 = 1",1.546 ± 0.033 mPa·s
same,mass density,"[2]; 313.15 K, x1 = 1",953.03 ± 1.1 kg/m3
same,viscosity,"[2]; 318.15 K, x1 = 1",1.428 ± 0.03 mPa·s
same,mass density,"[2]; 318.15 K, x1 = 1",949.05 ± 1.1 kg/m3
same,viscosity,"[2]; 323.15 K, x1 = 1",1.324 ± 0.028 mPa·s
same,mass density,"[2]; 323.15 K, x1 = 1",945.1 ± 1.1 kg/m3
same,viscosity,"[2]; 328.15 K, x1 = 1",1.233 ± 0.026 mPa·s
same,mass density,"[2]; 328.15 K, x1 = 1",941.13 ± 1.1 kg/m3
same,viscosity,"[2]; 333.15 K, x1 = 1",1.151 ± 0.024 mPa·s
same,mass density,"[2]; 333.15 K, x1 = 1",937.17 ± 1.1 kg/m3
same,viscosity,"[2]; 338.15 K, x1 = 1",1.079 ± 0.023 mPa·s
same,mass density,"[2]; 338.15 K, x1 = 1",933.19 ± 1.1 kg/m3
same,viscosity,"[2]; 343.15 K, x1 = 1",1.013 ± 0.022 mPa·s
same,mass density,"[2]; 343.15 K, x1 = 1",929.2 ± 1.1 kg/m3
"c1ccc2c(c1)CCCC2 [1,2,3,4-tetrahydronaphthalene] + OCC1CC1",viscosity,"[2]; 293.15 K, x1 = 1",2.233 ± 0.047 mPa·s
same,mass density,"[2]; 293.15 K, x1 = 1",968.89 ± 1.2 kg/m3
same,viscosity,"[2]; 298.15 K, x1 = 1",2.019 ± 0.043 mPa·s
same,mass density,"[2]; 298.15 K, x1 = 1",964.92 ± 1.2 kg/m3
same,viscosity,"[2]; 303.15 K, x1 = 1",1.838 ± 0.039 mPa·s
same,mass density,"[2]; 303.15 K, x1 = 1",960.96 ± 1.1 kg/m3
same,viscosity,"[2]; 308.15 K, x1 = 1",1.681 ± 0.036 mPa·s
same,mass density,"[2]; 308.15 K, x1 = 1",956.99 ± 1.1 kg/m3
same,viscosity,"[2]; 313.15 K, x1 = 1",1.546 ± 0.033 mPa·s
same,mass density,"[2]; 313.15 K, x1 = 1",953.03 ± 1.1 kg/m3
same,viscosity,"[2]; 318.15 K, x1 = 1",1.428 ± 0.03 mPa·s
same,mass density,"[2]; 318.15 K, x1 = 1",949.05 ± 1.1 kg/m3
same,viscosity,"[2]; 323.15 K, x1 = 1",1.324 ± 0.028 mPa·s
same,mass density,"[2]; 323.15 K, x1 = 1",945.1 ± 1.1 kg/m3
same,viscosity,"[2]; 328.15 K, x1 = 1",1.233 ± 0.026 mPa·s
same,mass density,"[2]; 328.15 K, x1 = 1",941.13 ± 1.1 kg/m3
same,viscosity,"[2]; 333.15 K, x1 = 1",1.151 ± 0.024 mPa·s
same,mass density,"[2]; 333.15 K, x1 = 1",937.17 ± 1.1 kg/m3
same,viscosity,"[2]; 338.15 K, x1 = 1",1.079 ± 0.023 mPa·s
same,mass density,"[2]; 338.15 K, x1 = 1",933.19 ± 1.1 kg/m3
same,viscosity,"[2]; 343.15 K, x1 = 1",1.013 ± 0.022 mPa·s
same,mass density,"[2]; 343.15 K, x1 = 1",929.2 ± 1.1 kg/m3
CC(C)C1CCCCC1 [(1-methylethyl)cyclohexane],viscosity,[1]; 293.15 K,1.093 ± 0.023 mPa·s
same,mass density,[1]; 293.15 K,802.14 ± 0.97 kg/m3
same,viscosity,[1]; 298.15 K,1.016 ± 0.022 mPa·s
same,mass density,[1]; 298.15 K,798.24 ± 0.97 kg/m3
same,viscosity,[1]; 303.15 K,0.947 ± 0.02 mPa·s
same,mass density,[1]; 303.15 K,794.34 ± 0.96 kg/m3
same,viscosity,[1]; 308.15 K,0.886 ± 0.019 mPa·s
same,mass density,[1]; 308.15 K,790.43 ± 0.96 kg/m3
same,viscosity,[1]; 313.15 K,0.831 ± 0.018 mPa·s
same,mass density,[1]; 313.15 K,786.51 ± 0.95 kg/m3
same,viscosity,[1]; 318.15 K,0.782 ± 0.017 mPa·s
same,mass density,[1]; 318.15 K,782.59 ± 0.95 kg/m3
same,viscosity,[1]; 323.15 K,0.738 ± 0.016 mPa·s
same,mass density,[1]; 323.15 K,778.66 ± 0.95 kg/m3
same,viscosity,[1]; 328.15 K,0.698 ± 0.015 mPa·s
same,mass density,[1]; 328.15 K,774.72 ± 0.94 kg/m3
same,viscosity,[1]; 333.15 K,0.661 ± 0.014 mPa·s
same,mass density,[1]; 333.15 K,770.77 ± 0.94 kg/m3
same,viscosity,[1]; 338.15 K,0.628 ± 0.013 mPa·s
same,mass density,[1]; 338.15 K,766.81 ± 0.93 kg/m3
same,viscosity,[1]; 343.15 K,0.598 ± 0.013 mPa·s
same,mass density,[1]; 343.15 K,762.84 ± 0.93 kg/m3
OCC1CC1 [cyclopropylmethanol],viscosity,[1]; 293.15 K,3.988 ± 0.085 mPa·s
same,mass density,[1]; 293.15 K,913.02 ± 1.1 kg/m3
same,viscosity,[1]; 298.15 K,3.455 ± 0.074 mPa·s
same,mass density,[1]; 298.15 K,908.96 ± 1.1 kg/m3
same,viscosity,[1]; 303.15 K,3.009 ± 0.064 mPa·s
same,mass density,[1]; 303.15 K,904.87 ± 1.1 kg/m3
same,viscosity,[1]; 308.15 K,2.635 ± 0.056 mPa·s
same,mass density,[1]; 308.15 K,900.74 ± 1.1 kg/m3
same,viscosity,[1]; 313.15 K,2.321 ± 0.049 mPa·s
same,mass density,[1]; 313.15 K,896.59 ± 1.1 kg/m3
same,viscosity,[1]; 318.15 K,2.054 ± 0.044 mPa·s
same,mass density,[1]; 318.15 K,892.38 ± 1.1 kg/m3
same,viscosity,[1]; 323.15 K,1.825 ± 0.039 mPa·s
same,mass density,[1]; 323.15 K,888.17 ± 1.1 kg/m3
same,viscosity,[1]; 328.15 K,1.629 ± 0.035 mPa·s
same,mass density,[1]; 328.15 K,883.86 ± 1.1 kg/m3
same,viscosity,[1]; 333.15 K,1.46 ± 0.031 mPa·s
same,mass density,[1]; 333.15 K,879.52 ± 1.1 kg/m3
same,viscosity,[1]; 338.15 K,1.316 ± 0.028 mPa·s
same,mass density,[1]; 338.15 K,875.1 ± 1.1 kg/m3
same,viscosity,[1]; 343.15 K,1.19 ± 0.025 mPa·s
same,mass density,[1]; 343.15 K,870.62 ± 1.1 kg/m3
OCC1CC1 [cyclopropylmethanol] + CC(C)C1CCCCC1,viscosity,"[2]; 293.15 K, x2 = 0",3.988 ± 0.085 mPa·s
same,mass density,"[2]; 293.15 K, x2 = 0",913.02 ± 1.1 kg/m3
same,viscosity,"[2]; 298.15 K, x2 = 0",3.455 ± 0.074 mPa·s
same,mass density,"[2]; 298.15 K, x2 = 0",908.96 ± 1.1 kg/m3
same,viscosity,"[2]; 303.15 K, x2 = 0",3.008 ± 0.064 mPa·s
same,mass density,"[2]; 303.15 K, x2 = 0",904.87 ± 1.1 kg/m3
same,viscosity,"[2]; 308.15 K, x2 = 0",2.635 ± 0.056 mPa·s
same,mass density,"[2]; 308.15 K, x2 = 0",900.74 ± 1.1 kg/m3
same,viscosity,"[2]; 313.15 K, x2 = 0",2.321 ± 0.049 mPa·s
same,mass density,"[2]; 313.15 K, x2 = 0",896.59 ± 1.1 kg/m3
same,viscosity,"[2]; 318.15 K, x2 = 0",2.054 ± 0.044 mPa·s
same,mass density,"[2]; 318.15 K, x2 = 0",892.38 ± 1.1 kg/m3
same,viscosity,"[2]; 323.15 K, x2 = 0",1.825 ± 0.039 mPa·s
same,mass density,"[2]; 323.15 K, x2 = 0",888.17 ± 1.1 kg/m3
same,viscosity,"[2]; 328.15 K, x2 = 0",1.629 ± 0.035 mPa·s
same,mass density,"[2]; 328.15 K, x2 = 0",883.86 ± 1.1 kg/m3
same,viscosity,"[2]; 333.15 K, x2 = 0",1.46 ± 0.031 mPa·s
same,mass density,"[2]; 333.15 K, x2 = 0",879.52 ± 1.1 kg/m3
same,viscosity,"[2]; 338.15 K, x2 = 0",1.317 ± 0.028 mPa·s
same,mass density,"[2]; 338.15 K, x2 = 0",875.1 ± 1.1 kg/m3
same,viscosity,"[2]; 343.15 K, x2 = 0",1.19 ± 0.025 mPa·s
same,mass density,"[2]; 343.15 K, x2 = 0",870.62 ± 1.1 kg/m3
